The values that follow come from PubChem BioAssay (NCI).

Among the test systems are OVCAR-5 ovarian; K-562 leukemia; RPMI-8226 leukemia; SF-295 CNS; SF-539 CNS; IGROV1 ovarian; CAKI-1 renal; A498 renal; SR leukemia; HOP-92 NSCLC.
Experiment in all cases: growth of human tumour cells (NCI), 48 h

Values joined by “and” are separate entries in the source; they are usually repeats but may differ in a detail not shown here. Identical values can stand only once.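 Grown in 96-well plates, cells were treated for 48 hours with each compound at five concentrations. Insufficient inhibition: endpoint recorded as highest concentration tested. At the GI50, growth is halved. The concentration for full growth arrest is given as TGI.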 Some results are limits rather than exact numbers.

Regarding `O=C(CI)NC(=O)NC(=O)NCc1ccccc1`, the GI50 in the test on OVCAR-5 ovarian was 2.98 µM; in the test with K-562 leukemia it was 1.16 µM; with RPMI-8226 leukemia, 3.2 µM; in the test with SF-295 CNS it was 14.1 µM; in the test on SF-539 CNS, 1.92 µM; with IGROV1 ovarian it was 2.56 µM. Besides, the GI50 in the test on CAKI-1 renal was 1.69 µM; in the test with A498 renal, 15.9 µM; in the test on SR leukemia, 0.804 µM; in the test on HOP-92 NSCLC, 1.71 µM. Moreover, the TGI with OVCAR-5 ovarian turned out to be 10.8 µM; in the test with K-562 leukemia, 4.05 µM; in the test with RPMI-8226 leukemia, 9.71 µM; with SF-295 CNS, 31.9 µM; in the test with SF-539 CNS, 4 µM; in the test on IGROV1 ovarian it was 6.83 µM. Further, the TGI in the test on CAKI-1 renal amounted to 3.12 µM; in the test on A498 renal, 30.9 µM; in the test on SR leukemia, 3.1 µM; in the test on HOP-92 NSCLC, 6.29 µM.

Consider `CCc1ccc(Oc2c(-c3ccc(OCc4ccc(Cl)cc4)cc3O)nn(C)c2C(F)(F)F)cc1`, for which the GI50 was 1.75 µM in the test with OVCAR-5 ovarian; 0.39 µM with K-562 leukemia; 0.505 µM in the test with RPMI-8226 leukemia; 0.947 µM with SF-295 CNS; 1.77 µM in the test on SF-539 CNS; 0.654 µM in the test on IGROV1 ovarian. Besides, the GI50 was 2.09 µM in the test on CAKI-1 renal, 1.28 µM with A498 renal, 0.502 µM with SR leukemia and 0.324 µM in the test with HOP-92 NSCLC. Besides, the TGI was 3.85 µM in the test with OVCAR-5 ovarian; 1.58 µM with K-562 leukemia; 3.6 µM in the test on RPMI-8226 leukemia; 2.51 µM with SF-295 CNS; 3.75 µM in the test on SF-539 CNS; 2.7 µM with IGROV1 ovarian. Also, the TGI in the test with CAKI-1 renal was found to be 7.25 µM; with A498 renal it was 2.93 µM; in the test on SR leukemia, 3.76 µM; with HOP-92 NSCLC, 1.77 µM.

For `CCN(CC)CCNc1n[n+]([O-])c2cc([N+](=O)[O-])ccc2[n+]1[O-]`, the TGI was 4.45 µM and 3.44 µM and 4.33 µM in the test with OVCAR-5 ovarian; 1.23 µM and 1.28 µM and 0.926 µM with K-562 leukemia; 1.77 µM and 1.72 µM and 1.02 µM with RPMI-8226 leukemia; 1.95 µM and 3.08 µM and 2.64 µM in the test on SF-295 CNS; 2.57 µM and 1.36 µM and 1.38 µM with SF-539 CNS; 1.83 µM and 0.999 µM and 0.897 µM in the test with IGROV1 ovarian. Further, the TGI with CAKI-1 renal was 1.79 µM and 2.7 µM and 1.97 µM; in the test with A498 renal, 7.99 µM and 4.69 µM and 6.23 µM; in the test on SR leukemia, 1.75 µM and 0.958 µM and 0.754 µM; with HOP-92 NSCLC, 1.93 µM and 2.53 µM and 2.28 µM. The GI50 with K-562 leukemia is 0.296 µM and 0.199 µM and 0.124 µM; with RPMI-8226 leukemia, 0.27 µM and 0.285 µM and 0.122 µM; in the test on SF-295 CNS, 0.253 µM and 0.447 µM and 0.186 µM; in the test with SF-539 CNS it was 0.809 µM and 0.402 µM and 0.355 µM; in the test on SR leukemia, 0.398 µM and 0.188 µM and 0.123 µM; with HOP-92 NSCLC, 0.163 µM and 0.297 µM and 0.449 µM.

For `CNC(=O)OCc1nc(SSc2nc(COC(=O)NC)c(COC(=O)NC)n2C)n(C)c1COC(=O)NC`, the TGI in the test on OVCAR-5 ovarian, in the test with K-562 leukemia, in the test on RPMI-8226 leukemia, with SF-295 CNS, in the test on SF-539 CNS and in the test with IGROV1 ovarian was more than 100 µM in each case. Also, the TGI with CAKI-1 renal, with A498 renal, in the test on SR leukemia and in the test on HOP-92 NSCLC was more than 100 µM in each case.

With `COc1cc2c(c3c1c(=O)c1ccccc1n3C)C=C([N+](=O)[O-])C(C)(C)O2`, the TGI with OVCAR-5 ovarian is more than 100 µM; with K-562 leukemia it was more than 100 µM; with RPMI-8226 leukemia, more than 31.6 µM; in the test on SF-295 CNS it was more than 100 µM; in the test with SF-539 CNS it was more than 100 µM; with IGROV1 ovarian it was more than 100 µM. Further, the TGI in the test on CAKI-1 renal was more than 100 µM; with A498 renal, 12.5 µM; in the test with SR leukemia it was more than 100 µM; with HOP-92 NSCLC, more than 100 µM.

For the molecule `CC[n+]1c(-c2ccccc2)c2cc(N)ccc2c2ccc(N)cc21`, the GI50 in the test on OVCAR-5 ovarian was 5.67 µM; in the test with K-562 leukemia, 1.75 µM; with RPMI-8226 leukemia, 2.23 µM and 1.02 µM and 2.64 µM; in the test on SF-295 CNS it was 1.51 µM; in the test on SF-539 CNS it was 0.763 µM; in the test on IGROV1 ovarian, 0.522 µM. Also, the GI50 in the test with CAKI-1 renal was 66.2 µM; in the test on A498 renal, 5.18 µM and 4.76 µM and 14.7 µM; in the test on SR leukemia, 0.801 µM and 1.69 µM and 4.08 µM; in the test on HOP-92 NSCLC, 1.24 µM. Further, the TGI was 57.6 µM and > 100 µM with OVCAR-5 ovarian; 30.1 µM and 50.5 µM and 35.3 µM with K-562 leukemia; > 100 µM and 10.4 µM and 24.3 µM in the test with RPMI-8226 leukemia; 13.7 µM and 15.5 µM and 29 µM in the test with SF-295 CNS; 4.4 µM and 6.43 µM and 6.19 µM in the test with SF-539 CNS; 10.2 µM and 12.9 µM in the test with IGROV1 ovarian. For the same molecule, the TGI in the test on CAKI-1 renal was more than 100 µM; in the test with A498 renal, 40.8 µM and 52.5 µM and 66.2 µM; in the test on SR leukemia, > 100 µM and 13 µM; in the test on HOP-92 NSCLC, 10.6 µM and 14.6 µM.

On to `O=C1Nc2ccc(-c3cccnc3)cc2/C1=C/c1cc(Br)c(O)c(Br)c1`, for which the GI50 with OVCAR-5 ovarian is 15.6 µM; with K-562 leukemia it was 9.07 µM; in the test on RPMI-8226 leukemia, 5.38 µM; in the test with SF-295 CNS, 5.25 µM; with SF-539 CNS it was 5.15 µM; with IGROV1 ovarian, 7.09 µM. Moreover, the GI50 in the test on CAKI-1 renal was 4.83 µM; in the test on A498 renal, 3.86 µM; with SR leukemia, 8.24 µM; with HOP-92 NSCLC it was 8.32 µM. Besides, the TGI in the test on OVCAR-5 ovarian is more than 25 µM; in the test with K-562 leukemia, more than 25 µM; in the test on RPMI-8226 leukemia, 19.7 µM; in the test with SF-295 CNS, 13.7 µM; with SF-539 CNS it was more than 22.4 µM; in the test with IGROV1 ovarian, more than 25 µM. Besides, the TGI with CAKI-1 renal was more than 23.7 µM; in the test with A498 renal, 11.5 µM; in the test on SR leukemia, more than 25 µM; with HOP-92 NSCLC, more than 25 µM.

`CS(=O)(=O)OCCN1CCN(C(=O)c2ccc(Cl)c3c(Nc4ccc(S(=O)(=O)N=C(N)N)cc4)c4ccccc4nc23)CC1`: the TGI in the test with OVCAR-5 ovarian, in the test with K-562 leukemia, in the test with RPMI-8226 leukemia, with SF-295 CNS, in the test with SF-539 CNS and with IGROV1 ovarian was more than 100 µM throughout. The TGI with CAKI-1 renal, in the test on A498 renal, in the test on SR leukemia and with HOP-92 NSCLC was more than 100 µM throughout.

For `Nc1ncnc2c1c(-c1ccc(Oc3ccccc3)cc1)nn2CC1SSCC1O` (stereo unspecified), the GI50 in the test with OVCAR-5 ovarian is 7.2 µM; with K-562 leukemia it was 0.788 µM; in the test on RPMI-8226 leukemia, 5.05 µM; with SF-295 CNS it was 6.36 µM; with SF-539 CNS, 1.05 µM; in the test with IGROV1 ovarian, 2.44 µM. The GI50 was 3.71 µM with CAKI-1 renal, 5.1 µM in the test on A498 renal, 0.251 µM with SR leukemia and 1.72 µM with HOP-92 NSCLC. Moreover, the TGI in the test with OVCAR-5 ovarian is 28.8 µM; in the test on K-562 leukemia, 7.39 µM; in the test with RPMI-8226 leukemia, 21.3 µM; with SF-295 CNS, 15.8 µM; in the test with SF-539 CNS, 8.19 µM; in the test with IGROV1 ovarian, 8.31 µM. For the same molecule, the TGI in the test with CAKI-1 renal was 12.7 µM; with A498 renal, 11.6 µM; in the test on SR leukemia, 2.11 µM; with HOP-92 NSCLC it was 8.23 µM.
